Some test systems named below: A549; CAKI-1; HCT-15; HOP-92; HT-29; M14; MCF7; MDA-MB-231; NCI-H522; OVCAR-3; OVCAR-4; OVCAR-8; PC-3; RXF 393; SF-295; SK-MEL-28; SK-MEL-5; SN12C; SW-620; U-251.
Common to all, as to assay: NCI anticancer screen, dose series, 48 h

The text below walks through data of ChEMBL document CHEMBL1201862, “PubChem BioAssay data set” (2004).

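Assay format: 96-well plates, 48-hour exposure. The concentration for 50% growth inhibition is given as GI50.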 Calls of active or inactive are those of the source. Rule as the data show it: active = GI50 up to about 1.1 µM and inactive = higher.

Consider `COc1ccc(-c2c(C#N)c(-c3ccc(C)cc3)n(NS(=O)(=O)c3ccccc3)c(=O)c2C#N)cc1`, for which the GI50 was 45.9 µM (inactive) in the test with A549; 74.1 µM (inactive) in the test with CAKI-1; 39.3 µM in the test with HCT-15; 38.8 µM (inactive) in the test with HOP-92; 47.5 µM (inactive) with HT-29; 48.6 µM (inactive) in the test on M14. Besides, the GI50 was 28.9 µM (inactive) with MCF7; > 100 µM (inactive) in the test on MDA-MB-231; 87.7 µM (inactive) in the test on NCI-H522; 30.9 µM (inactive) in the test on OVCAR-3; 37.8 µM (inactive) with OVCAR-4; 58.1 µM (inactive) in the test with OVCAR-8. In addition, the GI50 in the test with PC-3 was 35 µM (inactive); with RXF 393, 36.2 µM (inactive); in the test on SF-295, 32.7 µM (inactive); in the test with SK-MEL-28, 48.1 µM (inactive); with SK-MEL-5, 19.5 µM (inactive); in the test on SN12C it was 65.3 µM (inactive). Moreover, the GI50 with SW-620 was 46.7 µM (inactive); with U-251 it was 42.2 µM (inactive).

As to `COc1ccc(-c2cc(-c3ccccc3)nc(/N=C\c3ccccc3)n2)c(O)c1`, the GI50 in the test with A549 is 26.4 µM (inactive); in the test with CAKI-1 it was 3.02 µM (inactive); in the test on HCT-15, 5.37 µM; in the test with HOP-92, > 100 µM (inactive); in the test on HT-29 it was > 27.9 µM (inactive); in the test with M14 it was > 100 µM (inactive). Further, the GI50 in the test on MCF7 is 1.64 µM (inactive); in the test on MDA-MB-231 it was > 31.3 µM (inactive); with NCI-H522, 3.33 µM (inactive); in the test with OVCAR-3, > 52.2 µM (inactive); in the test on OVCAR-4 it was > 41.9 µM (inactive); in the test with OVCAR-8, > 70.1 µM (inactive). Besides, the GI50 was 7 µM (inactive) in the test on PC-3; > 100 µM (inactive) with RXF 393; 97.7 µM (inactive) with SF-295; > 100 µM (inactive) with SK-MEL-28; 7.05 µM (inactive) with SK-MEL-5; > 29 µM (inactive) in the test with SN12C. Also, the GI50 with SW-620 was 8 µM (inactive); in the test on U-251, 10.3 µM (inactive).

For the molecule `CCOP(=O)(OCC)OC1c2[nH]cc(C(=O)OCc3ccccc3)c2-c2cc(C(=O)OC)[nH]c2C1OC` (stereo not given), the GI50 was 5.85 µM (inactive) in the test with A549; 20.2 µM (inactive) in the test with CAKI-1; 3.25 µM in the test on HCT-15; 4.28 µM (inactive) with HOP-92; 3.24 µM (inactive) in the test with HT-29; 9.08 µM (inactive) in the test on M14. Besides, the GI50 was 8.67 µM (inactive) in the test with MCF7; 2.91 µM (inactive) with MDA-MB-231; 6.53 µM (inactive) with NCI-H522; 11.2 µM (inactive) with OVCAR-3; 6.15 µM (inactive) in the test on OVCAR-4; 12.8 µM (inactive) in the test on OVCAR-8. The GI50 with PC-3 was 4.94 µM (inactive); in the test with RXF 393, 8.18 µM (inactive); in the test on SF-295 it was 5 µM (inactive); in the test with SK-MEL-28, 4.94 µM (inactive); in the test on SK-MEL-5 it was 7.46 µM (inactive); in the test on SN12C, 16.4 µM (inactive). Besides, the results for the GI50 in the test with SW-620 and with U-251 were 14.5 µM (inactive) and 11.4 µM (inactive), respectively.

Take `Cc1ncc([N+](=O)[O-])n1CCNCCCCn1ccnc1[N+](=O)[O-]`: the GI50 was > 100 µM (inactive) in the test on A549; > 100 µM (inactive) in the test with CAKI-1; above 100 µM in the test on HCT-15; > 100 µM (inactive) in the test with HOP-92; > 100 µM (inactive) with HT-29; > 100 µM (inactive) in the test with M14. For the same molecule, the GI50 with MCF7, in the test with MDA-MB-231, with NCI-H522, in the test on OVCAR-3, in the test on OVCAR-4 and with OVCAR-8 was > 100 µM (inactive) in each case. Moreover, the GI50 with PC-3, in the test with RXF 393, with SF-295, with SK-MEL-28, in the test with SK-MEL-5 and in the test with SN12C was > 100 µM (inactive) in each case. The GI50 with SW-620 and in the test on U-251 was > 100 µM (inactive) in each case.

Take `O=C(/C=C/c1ccc(-c2ccccc2)cc1)NCc1ccc(C(=O)NCCc2ccccc2)cc1`: the GI50 was > 100 µM (inactive) in the test on A549; > 100 µM (inactive) with CAKI-1; above 100 µM in the test on HCT-15; 54.6 µM (inactive) in the test on HOP-92; 28.1 µM (inactive) with HT-29; > 100 µM (inactive) in the test on M14. Also, the GI50 in the test on MCF7 is 25.4 µM (inactive); with MDA-MB-231, 38.1 µM (inactive); in the test on NCI-H522, > 100 µM (inactive); in the test with OVCAR-3 it was > 100 µM (inactive); in the test on OVCAR-4, > 100 µM (inactive); in the test on OVCAR-8 it was 36.2 µM (inactive). Further, the GI50 in the test on PC-3 is > 100 µM (inactive); in the test on RXF 393, 24.5 µM (inactive); in the test with SF-295, > 100 µM (inactive); in the test with SK-MEL-28, > 100 µM (inactive); in the test on SK-MEL-5, > 100 µM (inactive); in the test on SN12C, > 100 µM (inactive). Also, the GI50 was > 100 µM (inactive) in the test on SW-620 and 65.3 µM (inactive) in the test on U-251.

On to `CCN(CC)CCCNc1nc2ccccc2[n+]([O-])n1`, for which the GI50 is > 100 µM (inactive) with A549; > 100 µM (inactive) with CAKI-1; above 100 µM with HCT-15; > 100 µM (inactive) in the test on HOP-92; > 100 µM (inactive) in the test with HT-29; > 100 µM (inactive) in the test with M14. For the same molecule, the GI50 in the test on MCF7 was 50.9 µM (inactive); in the test with MDA-MB-231 it was > 100 µM (inactive); with NCI-H522, > 100 µM (inactive); in the test with OVCAR-3 it was > 100 µM (inactive); in the test with OVCAR-4 it was > 100 µM (inactive); in the test with OVCAR-8, > 100 µM (inactive). For the same molecule, the GI50 in the test on PC-3, with RXF 393, in the test on SF-295, in the test on SK-MEL-28, in the test with SK-MEL-5 and with SN12C was > 100 µM (inactive) in each case. The GI50 in the test with SW-620 and in the test on U-251 was > 100 µM (inactive) each time.

For the molecule `COc1ccc2c(c1)c1c3c(ccc4ncn2c43)N(CCN(C)C)CCN=1`, the GI50 with A549 was 0.359 µM (active); in the test on CAKI-1 it was 1.71 µM (inactive); in the test on HCT-15 it was 0.303 µM; in the test with HOP-92 it was 1.49 µM (inactive); in the test on HT-29, 0.135 µM (active); in the test with M14, 0.895 µM (active). The GI50 with MCF7 was 0.288 µM (active); with MDA-MB-231, 0.476 µM (active); with NCI-H522, 0.19 µM (active); in the test on OVCAR-3, 0.538 µM (active); with OVCAR-4, 0.309 µM (active); in the test on OVCAR-8 it was 0.284 µM (active). Moreover, the GI50 is 0.357 µM (active) in the test with PC-3; 1.12 µM (active) in the test with RXF 393; 0.494 µM (active) in the test with SF-295; 0.897 µM (active) in the test with SK-MEL-28; 0.91 µM (active) in the test with SK-MEL-5; 0.316 µM (active) with SN12C. Moreover, the GI50 was 0.146 µM (active) in the test on SW-620 and 0.363 µM (active) in the test with U-251.

Consider `CCn1c(-c2c(Cl)cc(O)cc2Cl)cc2c(Cl)cc(O)cc21`, for which the GI50 with A549 is 4.42 µM (inactive); with CAKI-1 it was 6.14 µM (inactive); with HCT-15 it was 3.48 µM; in the test with HOP-92 it was 13.8 µM (inactive); in the test with HT-29 it was 1.58 µM (inactive); in the test with M14, 6.05 µM (inactive). Further, the GI50 in the test with MCF7 was 3.71 µM (inactive); with MDA-MB-231, 5.9 µM (inactive); in the test with NCI-H522, 1.72 µM (inactive); in the test with OVCAR-3, 6.08 µM (inactive); in the test on OVCAR-4 it was 4.85 µM (inactive); with OVCAR-8, 4.59 µM (inactive). Besides, the GI50 was 9.04 µM (inactive) in the test on PC-3; 2.33 µM (inactive) in the test with RXF 393; 4.05 µM (inactive) in the test with SF-295; 2.3 µM (inactive) with SK-MEL-28; 3.21 µM (inactive) with SK-MEL-5; 13.3 µM (inactive) with SN12C. The GI50 is 5.69 µM (inactive) with SW-620 and 4.03 µM (inactive) in the test with U-251.

For the molecule `O=C(O)CSSCC(=O)O`, the GI50 in the test with A549 is > 100 µM (inactive); in the test with CAKI-1, > 100 µM (inactive); in the test with HCT-15, above 100 µM; in the test with HOP-92, > 100 µM (inactive); with HT-29, > 100 µM (inactive); with M14 it was > 100 µM (inactive). Also, the GI50 in the test on MCF7, in the test on MDA-MB-231, in the test on NCI-H522, with OVCAR-3, in the test on OVCAR-4 and in the test with OVCAR-8 was > 100 µM (inactive) throughout. For the same molecule, the GI50 in the test with PC-3, in the test on RXF 393, in the test on SF-295, in the test on SK-MEL-28, in the test with SK-MEL-5 and in the test with SN12C was > 100 µM (inactive) throughout. Also, the GI50 with SW-620 and in the test with U-251 was > 100 µM (inactive) throughout.

In the case of `COc1cc(OC)c2c(O)c(S(=O)(=O)c3ccc(C)cc3)c(=O)oc2c1`, the GI50 in the test on A549 is > 100 µM (inactive); with CAKI-1, > 100 µM (inactive); with HCT-15, above 100 µM; with HOP-92, > 100 µM (inactive); in the test with HT-29 it was > 100 µM (inactive); with M14, > 100 µM (inactive). Also, the GI50 in the test with MCF7, in the test with MDA-MB-231, in the test with NCI-H522, with OVCAR-3, with OVCAR-4 and in the test with OVCAR-8 was > 100 µM (inactive) throughout. Moreover, the GI50 in the test on PC-3, with RXF 393, in the test on SF-295, with SK-MEL-28, in the test on SK-MEL-5 and with SN12C was > 100 µM (inactive) each time. The results for the GI50 in the test with SW-620 and with U-251 were > 100 µM (inactive) and 96.6 µM (inactive), respectively.
